These are literature values, as cited in US8546585B2, “Process for preparing eprosartan mesylate” (Zhejiang Huahai Pharmaceutical Co., Ltd., priority 2008, dated 2013).

The structures appear in SMILES notation. Where a name gives a salt, the structure may show the parent alone.

The conditions of data set [1]: mild, moderate and severe hypertensive patients.
Assay in data set [2]: not given
The source holds these as a separate data set.

[3] abbreviates: patients with liver and kidney dysfunction, or fullness after administration.

As to `CCCCc1ncc(/C=C(\Cc2cccs2)C(=O)O)n1Cc1ccc(C(=O)O)cc1` [Eprosartan mesylate], in data set [1], the “lowering of systolic and diastolic pressures” value was “potent to lower systolic and diastolic pressures”; the safety and tolerability result was “safe and tolerable”. Moreover, the absorption entry (administrated orally) is given as “rapidly absorbed”. Under setting [3], the “AUC (Area Under Curve) elevated by” value is “about 50%” and the “blood peak concentration elevated by” value is given as “about 50%”. Further, the protein binding rate in data set [2] is 98%.
